Measured values as given in patent US5108900A, “Monoclonal antibodies to synthetic pyrethroids and method for detecting the same” (Regents of the University of California, priority 1989, dated 1992).

Key:
[1] = system: monoclonal antibody Py-1; assay: Competition ELISA (cELISA), monoclonal antibody Py-1, 3-pba-BSA coated plates; type: binding, mouse; settings: for Average 50% inhibition values (I50), Py-1: Table I, averages from at least 12 assays; for Average 50% inhibition values (I50), Py-1 / I50 values observed for competitors (FIG. 4): Py-1
Method: (§1) The binding specificities of antibodies to standards and assay samples were evaluated by competition ELISA assays. In a competition assay system, an antigen, which is a large molecule with protein or carbohydrate moieties which can precisely bind with steric interaction with the conformation of the antibodies is fixed to the reaction surface of a test plate, and antigen-specific antibody is added along with an aliquot of sample extract or standard test solution. The free-floating antibody partitions between the fixed antigen bound to the test reaction surface and the antigen of the added sample or standard which is free-floating in the solution. After a reaction period, the free-floating antigen-antibody complex is washed away. The plate is rewashed and incubated with an enzyme-tagged indicator molecule which will immunospecifically bind to proteins of the animal species which was the source of the pyrethroid-specific antibodies. Substrate and buffer are provided for the reaction of the enzyme-tagged indicator molecule. The optical signal from the enzyme substrate reaction indicates the amount of pyrethroid-specific antibody which remains bound to the immobilized antigen on the reaction plate. The utility of such a reaction system is dependent on the surface binding of the antigenic hapten-protein complex. The sensitivity of such a binding system can be amplified by coupling the enzyme reaction endpoint to a biotin-avidin complex. Optimal enzyme sensitivity occurs when a minimal amount of coating antigen (3-pba-BSA) is used.
(§2) A competition enzyme-linked immunosorbent assay (c-ELISA) was developed to quantify permethrin standards in solution and to assess the specificity of the antibodies for various natural and synthetic pyrethroids. […] The 3-pba conjugate could be prepared by using EDC (1-ethyl-3-(3-dimethylaminopropyl)carbodiimide) as a cross-linking agent. The 3-pba conjugate was used as the coating agent for all subsequent experiments. Microtiter plates were coated with 0.5 μg/well 3-pba-BSA and blocked with ovalbumin.
(§3) In the competition ELISA, the competitors were dissolved in acetonitrile and were added to phosphate-buffered saline(PBS)-Tween buffer such that the resulting solution was 6% acetonitrile. Competitor was added so that each well contained 100 μl of competitor in a 6% acetonitrile-PBS solution. An equal volume of PBS containing monoclonal antibody was added such that there was a final concentration assay buffer containing antibody and competitor. These antibodies can tolerate up to 5% acetonitrile without loss of activity. The plates were incubated for one hour at 37° C. and the endpoint assessed by observation of the color change of p-nitrophenyl phosphate substrate actuated by alkaline phosphatase conjugated to goat anti-mouse antibody.
(§4) Because the sensitivity of c-ELISA's can be influenced by both the amount of specific anti-hapten antibody used and the amount of immobilized antigen, both of these parameters were optimized. In the preferred method, the amount of antigen used to coat the microtiter plates was varied from 10-0.5 μg/well, with 0.5 μg/well being more preferred. The method of application of the antigen to the plate was important to the assay. Antigen could be absorbed onto the wells overnight at 4° C. or antigen could be allowed to evaporate from the antigen solution onto the wells at 37° C. Using Py-1 antibody and permethrin as competitor, maximal sensitivity was observed when the antigen was allowed to evaporate onto the wells. In the preferred method microliter plates were prepared by evaporation of 100 μl of a 5 μg/mL solution of coating antigen (3-pba-BSA) at 37° C..
The antibody Py-1 was titrated against immobilized antigen (0.5 μg […]/well) in a direct binding ELISA. At a Py-1 antibody concentration of 0.02 μg/well, the level used in subsequent cELISA's, 40% of the plateau activity was reached. […]

[2] = system: monoclonal antibody Py-3; assay: Competition ELISA (cELISA), monoclonal antibody Py-3, 3-pba-BSA coated plates; type: binding, mouse; settings: for Average 50% inhibition values (I50), Py-3: Table I, averages from at least 12 assays
Method: as §1, §2, §3
as §4, with “C.. […]” for “C..”
(§5) The competition ELISA data was normalized using 100% activity as the optical density in wells in which antibody bound to the solid phase antigen (3-pba-BSA) in the absence of any competitor. The test wells, each containing different amounts of competitor, were normalized to the 100% activity wells. […]

[3] = system: monoclonal antibody Py-4; assay: Competition ELISA (cELISA), monoclonal antibody Py-4, 3-pba-BSA coated plates; type: binding, mouse; settings: for Average 50% inhibition values (I50), Py-4: Table I, averages from at least 12 assays
Method: as §1, §2, §3
as §4, with “C.. […]” for “C..”
as §5

[4] = background; cited from earlier work
[5] = system: Antibodies selected for their binding to the analog hapten of permethrin; assay: Antibody response to hapten and related pyrethroids; design: species or system mouse
Excerpt: Synthetic pyrethroids are small organic molecules, and in an effort to render such a molecule immunogenic, it was necessary to conjugate such molecules to carrier protein. Various modifications of synthetic pyrethroids can be made to achieve this purpose.

[6] = cited from earlier work; for oncogenicity listing by U.S. Environmental Protection Agency: Regulating Pesticides in Food: The Delaney Paradox, 1987; for mammalian toxicity: background

CC1(C)C(C(=O)OC(C#N)c2cccc(Oc3ccccc3)c2)C1(C)C (stereo not drawn) [Fenpropathrin, alpha-cyano-3-phenoxybenzyl-2,2,3,3-tetramethylcyclopropanecarboxylate]
Average 50% inhibition values (I50), Py-1 [1]: 17 nanograms
Average 50% inhibition values (I50), Py-3 [2]: 10 nanograms
Average 50% inhibition values (I50), Py-4 [3]: 25 nanograms

CC(C)[C@H](C(=O)OC(C#N)c1cccc(Oc2ccccc2)c1)c1ccc(OC(F)F)cc1 (stereo partly drawn) [Flucythranate, cyano(3-phenoxyphenyl)methyl(S)-4-(difluoromethoxy)-alpha-(1-methylethyl) benzeneacetate]
Average 50% inhibition values (I50), Py-1 [1]: 120 nanograms
Average 50% inhibition values (I50), Py-3 [2]: 45 nanograms
Average 50% inhibition values (I50), Py-4 [3]: 275 nanograms

CC(C)=CC1C(C(=O)OCN2C(=O)C3=C(CCCC3)C2=O)C1(C)C (mixture of isomers) [Tetramethrin, N-(3,4,5,6-tetrahydrophthalimino) methyl (dl)-cis,trans-chrysanthemate]
Average 50% inhibition values (I50), Py-1 [1]: > 600 nanograms

C=CCC1=C(C)C(OC(=O)C2C(C=C(C)C)C2(C)C)CC1=O (stereo not shown) [allethrin]
stability in the air and water [4]: unstable character

CC(C)=CC1C(C(=O)OCc2cccc(Oc3ccccc3)c2)C1(C)C (mixture of isomers) [Phenothrin, 3-phenoxybenzyl(lRS)cis,transchrysanthemate]
I50 values observed for competitors (FIG. 4) [1]: 1.5 ng/well
Average 50% inhibition values (I50), Py-1 [1]: 1.5 nanograms
Average 50% inhibition values (I50), Py-3 [2]: 0.5 nanograms
Average 50% inhibition values (I50), Py-4 [3]: 6 nanograms
responsiveness of antibodies [5]: similarly responsive

CC(C)=CC1C(C(=O)O)C1(C)C (stereo not shown) [Chrysanthemic acid]
Average 50% inhibition values (I50), Py-1 [1]: > 600 nanograms

CC1(C)C(C=C(Cl)Cl)C1C(=O)OCc1cccc(Oc2ccccc2)c1 [Permethrin (trans isomers)]
Average 50% inhibition values (I50), Py-1 [1]: 1.7 nanograms

CC1(C)C(C(=O)O)C1C(=O)OCc1cccc(Oc2ccccc2)c1 (stereo not shown) [Hapten]
Average 50% inhibition values (I50), Py-1 [1]: 2 nanograms
Average 50% inhibition values (I50), Py-3 [2]: 0.3 nanograms
Average 50% inhibition values (I50), Py-4 [3]: 0.6 nanograms
responsiveness of antibodies [5]: similarly responsive

CC1(C)C(C=C(Cl)Cl)C1C(=O)OCc1cccc(Oc2ccccc2)c1 (mixture of isomers) [Permethrin, 3-phenoxybenzyl (lRS),cis,trans-3(2,2-dichlorovinyl)-2,2-dimethylcyclopropanecarboxylate]
concentration which caused a 50% inhibition (I50) of antibody activity, Py-1 ([1]; FIG. 3, in words): low nanogram range
I50 values observed for competitors (FIG. 4) [1]: 1.7 ng/well
50% inhibition value, Py-1 ([1]; Table 1, ng of competitor): 1.5 ng
Average 50% inhibition values (I50), Py-1 ([1]; listed as Permethrin (mixed isomers)): 1.5 nanograms
concentration which caused a 50% inhibition (I50) of antibody activity, Py-3 ([2]; FIG. 3, in words): low nanogram range
50% inhibition value, Py-3 ([2]; Table 1, ng of competitor): 1.7 ng
Average 50% inhibition values (I50), Py-3 [2]: 1.7 nanograms
concentration which caused a 50% inhibition (I50) of antibody activity, Py-4 ([3]; FIG. 3, in words): low nanogram range
50% inhibition value, Py-4 ([3]; Table 1, ng of competitor): 12 ng
Average 50% inhibition values (I50), Py-4 [3]: 12 nanograms
responsiveness of antibodies [5]: similarly responsive
stability [4]: more stable
oncogenicity listing by U.S. Environmental Protection Agency [6]: potentially oncogenic
mammalian toxicity [6]: low mammalian toxicity

O=Cc1cccc(Oc2ccccc2)c1 [3-Phenoxybenzaldehyde]
Average 50% inhibition values (I50), Py-1 [1]: 22 nanograms

C=CCC1=C(C)C(OC(=O)[C@@H]2[C@@H](C=C(C)C)C2(C)C)CC1=O (stereo partly shown) [bioallethrin]
stability in the air and water [4]: unstable character

CC(C)C(C(=O)OC(C#N)c1cccc(Oc2ccccc2)c1)c1ccc(Cl)cc1 (stereo not shown) [Fenvalerate, cyano(3-phenoxyphenyl)methyl 4-chloroalpha-(1-methylethyl)benzeneacetate]
I50 values observed for competitors (FIG. 4) [1]: 350 ng/well
Average 50% inhibition values (I50), Py-1 [1]: 350 nanograms
Average 50% inhibition values (I50), Py-3 [2]: 160 nanograms
Average 50% inhibition values (I50), Py-4 [3]: 4000 nanograms

CC1(C)C(C=C(Cl)Cl)C1C(=O)OC(C#N)c1cccc(Oc2ccccc2)c1 (mixture of isomers) [Cypermethrin, alpha-cyano-3-phenoxybenzyl cis, trans-3-(2,2-dichlorovinyl)-2,2-dimethylcyclopropanecarboxylate]
I50 values observed for competitors (FIG. 4) [1]: 30 ng/well
Average 50% inhibition values (I50), Py-1 [1]: 30 nanograms
Average 50% inhibition values (I50), Py-3 [2]: 20 nanograms
Average 50% inhibition values (I50), Py-4 [3]: 22 nanograms
stability [4]: more stable
oncogenicity listing by U.S. Environmental Protection Agency [6]: potentially oncogenic
mammalian toxicity [6]: low mammalian toxicity

CC1(C)[C@H](C(=O)O[C@H](C#N)c2cccc(Oc3ccccc3)c2)[C@@H]1C=C(Br)Br (racemic) [Deltamethrin, -/+alpha-cyano-3-phenoxybenzyl-(+/-)-cis,trans-3-(2,2-dibromovinyl)-2,2-dimethylcyclopropanecarboxylate]
I50 values observed for competitors (FIG. 4) [1]: 15 ng/well
Average 50% inhibition values (I50), Py-1 [1]: 15 nanograms
Average 50% inhibition values (I50), Py-3 [2]: 10 nanograms
Average 50% inhibition values (I50), Py-4 [3]: 10 nanograms
stability [4]: more stable
mammalian toxicity [6]: low mammalian toxicity

O=C(O)c1cccc(Oc2ccccc2)c1 [3-Phenoxybenzoic acid]
Average 50% inhibition values (I50), Py-1 [1]: 200 nanograms
Average 50% inhibition values (I50), Py-3 [2]: 140 nanograms
Average 50% inhibition values (I50), Py-4 [3]: 330 nanograms
